This test deals with 3T3-L1 adipocytes. Briefly: Adipogenesis in 3T3-L1 adipocytes cultured with inhibitors of intracellular signaling pathways (AdipoRed). Format: cell-based, mouse. The note with it: added two days after differentiation, cultured two days; genistein 1 or 10 μM, Wortmannin 10 or 100 nM, PD98059 1 or 10 μM, Bay 11-7082 1 or 10 nM; FIG. 6A-D. The protocol: In yet another experiment, to search for the involvement of intracellular signaling factors, the culture fluid was substituted with a culture fluid containing DMEM, which contained 10% FBS and insulin (10 μg/ml), and a vehicle (1% ethanol) or DHMBA (1 or 10 μM) two days after the differentiation culture. The cells were cultured for another two days in a culture fluid containing signaling inhibitory factors, such as genistein (1 or 10 μM), Wortmannin (10 or 100 nM), PD98059 (1 or 10 μM), or Bay 11-7082 (1 or 10 nM). After the cell culture, the amount of intracellular lipid (triglyceride) formation was quantified using AdipoRed Assay Reagent (Lonza, Walkersville, MD, USA) [19 to 21]. Fluorescence was measured at an excitation of 485 nm and an emission of 570 nm using a 96-well plate reader (μQuant, Bio-Tek Instruments).

Molecules are shown by their SMILES.

Consider `O=c1c(-c2ccc(O)cc2)coc2cc(O)cc(O)c12` [genistein, reference compound], for which the “Lipogenesis/adipogenesis with the inhibitor alone” value is reported as “not altered”.

On to `Cc1ccc(S(=O)(=O)/C=C/C#N)cc1` [Bay 11-7082, reference compound], for which the “Lipogenesis/adipogenesis with the inhibitor alone” value is “inhibited”.

Take `COC[C@H]1OC(=O)c2coc3c2[C@@]1(C)C1=C(C3=O)[C@@H]2CCC(=O)[C@@]2(C)C[C@H]1OC(C)=O` [Wortmannin, reference compound]: the “Lipogenesis/adipogenesis with the inhibitor alone” value is given as “inhibited”.

With `COc1cccc(-c2cc(=O)c3ccccc3o2)c1N` [PD98059, reference compound], the “Lipogenesis/adipogenesis with the inhibitor alone” value is reported as “inhibited”.

The values are drawn from US20260283977A1, “ADIPOCYTE GROWTH INHIBITOR” (WATANABE OYSTER LABORATORY CO., LTD., priority 2023, published 2026).
